The record followed here is patent publication US20140243292A1, “SUBSITUTED 2-(CHROMAN-6-YLOXYL)-THIAZOLES AND THEIR USE AS PHARMACEUTICALS” (Sanofi, priority 2011, published 2014).

The structures appear in SMILES notation. Structures can show the parent of a compound that is named as a salt.

The test deals with T1, human NCX1 (Homo sapiens, UniProt P32418).
T1 construct: expressed in transfected cells
In words: NCX1 inhibition, reverse mode (Ca2+ influx into cells), FLIPR Fluo-4 assay. The format is cell-based. Conditions: inhibition of NCX1 in reverse mode (Ca2+ influx into cells); read-out: NCX1rv IC50. An excerpt:
The sodium/calcium exchanger NCX1 can transport calcium ions and sodium ions through the cell membrane. The transport is an exchange of Ca^2+ and Na^+ in two directions depending on membrane potential and ion gradients. At the first direction, named “forward mode” or “calcium export mode”, Ca^2+ is transported out of the cell and Na^+ is transported into the cell. At the other direction, named “reverse mode” or “calcium import mode”, the transport directions are vice versa. The effect of the compounds of the invention on NCX1 was determined in CHO cells stably expressing human NCX1 (gene symbol SLC8A1; cf. WO 2009/115238). The assay is based on the monitoring of intracellular Ca^2+ concentrations using a calcium-sensitive fluorescence dye which is detected by means of a FLIPR device (Fluorimetric Imaging Plate Reader, Molecular Devices).
The assay is based on the monitoring of intracellular Ca^2+ concentrations using the calcium-sensitive dye Fluo-4. CHO cells expressing NCX1 were loaded with the dye by means of the acetoxymethyl ester Fluo-4 AM (Invitrogen, F14202), which is cleaved intracellularly by esterase activity to yield the charged species of free Fluo-4. After an preincubation period with the test compound, Gramicidine (Sigma, G5002) was added. Gramicidine is an ionophor for Na^+ ions mediating an increase of intracellular Na^+ ions. Consequently, intracellular Na^+ ions are exchanged against extracellular Ca^2+ ions (Ca^2+ influx, reverse mode). The intracellular elevation of Ca^2+ ions was detected by measuring the fluorescence of Fluo-4 at a wavelength of 520 nm by a FLIPR device.
Briefly, for the reverse mode transport assay 18000 cells per well were seeded into a 96 well microplate (Corning COSTAR 3904) and incubated overnight in culture medium (1× Nut Mix F12 (Ham) (Gibco, 21765-029); 10% (v/v) fetal calf serum (PAA Gold, A15-649); 450 μg/ml Geneticin (Gibco, 10131-027)). A total volume of 100 μl medium per well was used. For the preparation of the FLIPR assay, the culture medium was removed from the plates and 100 μl of dye solution (2 μM Fluo-4 AM; 0.02% (v/v) Pluronic F-127 (20%, Invitrogen, P3000MP); 0.1% (v/v) bovine albumin solution (30% (v/v), Sigma, A9205) in assay buffer (133.8 mM NaCl (Sigma, S5886); 4.7 mM KCl (Sigma, P3911); 1.25 mM MgCl2 (Merck, 1.05833.0250); 3.5 mM CaCl2 (Merck, 1.02083.0250); 5 mM glucose (Sigma, G7021); 10 mM Hepes (Sigma, H4034); 0.01% (v/v) Pluronic F-127 (5%, Sigma, P2443); 2.5 mM Probenecid (Maybridge, SB00915EB); pH 7.4)) were added into each well. The plates were incubated in the dark at room temperature for 80 min. After the incubation period, the dye solution was removed and the wells were washed with 100 μl of assay buffer. Then 80 μl of a solution of the test compound in assay buffer in different concentrations were added into the wells. The plates were incubated at 16° C. for 45 min. Meanwhile a 60 μM solution of Gramicidine in assay buffer (4° C.) was prepared and stored in the wells of a 96 well microplate (96 well microplate, polypropylene, U-shape (Greiner Bio-One, 650201)) at 4° C. until measurement was started. The fluorescence monitoring was performed at 240 measuring points with measurement intervals of 2 sec. After the fifth measuring point, 40 μl of the Gramicidine solution were added to each well of the assay plates to give a final Gramicidine concentration of 20 μM. For the determination of the IC50 values the minimal fluorescence value was subtracted from the maximal fluorescence value for all measuring points. The calculation of the IC50 values via the percentage inhibitions of Ca^2+ influx into cells (reverse mode) effected by the test compound was performed in Biost@t Speed 2.0.
Take `O=C(NCc1ccncc1)c1cnc(Oc2ccc3c(c2Cl)CCC(c2ccccc2)O3)s1` (centres unmarked) [compound 55, hydrochloride]: the half-maximal inhibitory concentration (IC50) stood at 1200 nM. Take `Cc1nccc(CNC(=O)c2cnc(Oc3ccc4c(c3)CCC(c3cccc(F)c3)O4)s2)n1` (centres unmarked) [compound 56, hydrochloride]: the IC50 was 200 nM. With `NCc1cnc(Oc2ccc3c(c2)CCC(c2ccccc2)O3)s1` (centres unmarked) [compound 57, C-[2-(2-Phenyl-chroman-6-yloxy)-thiazol-5-yl]-methylamine] the figure was 100 nM; with `O=C(NCc1ccncc1)c1cnc(Oc2ccc3c(c2)CCC(c2ccsc2)O3)s1` (centres unmarked) [compound 60, hydrochloride], 100 nM. The figure for `O=C(NCCc1ccncc1)c1cnc(Oc2ccc3c(c2)CCC(c2ccccc2)O3)s1` (centres unmarked) [compound 61, hydrochloride] is 200 nM; for `Cc1c(CNC(=O)c2cnc(Oc3ccc4c(c3)CC[C@@H](c3ccccc3)O4)s2)cnn1C` [compound 62] it is 300 nM. Consider `Cc1c(CNC(=O)c2cnc(Oc3ccc4c(c3)CC[C@H](c3ccccc3)O4)s2)cnn1C` [compound 63], for which the concentration for half-maximal inhibition (IC50) stood at 600 nM.

`Cc1ccc(C(=O)NCc2cnc(Oc3ccc4c(c3)CCC(c3ccccc3)O4)s2)cn1` (centres unmarked) [compound 64]: the IC50 was 1300 nM. In the case of `Cc1noc(C)c1C(=O)NCc1cnc(Oc2ccc3c(c2)CCC(c2ccccc2)O3)s1` (centres unmarked) [compound 65], the half-maximal inhibitory concentration (IC50) came out at 200 nM. With `Cc1cc(C(=O)NCc2cnc(Oc3ccc4c(c3)CCC(c3ccccc3)O4)s2)n(C)n1` (centres unmarked) [compound 66] the figure was 600 nM; with `Cc1nn(C)c(C)c1C(=O)NCc1cnc(Oc2ccc3c(c2)CCC(c2ccccc2)O3)s1` (centres unmarked) [compound 67], 300 nM; with `O=C(NCc1cnc(Oc2ccc3c(c2)CCC(c2ccccc2)O3)s1)c1ccnc(Cl)c1` (centres unmarked) [compound 68], 800 nM. The figure for `Cc1ncoc1C(=O)NCc1cnc(Oc2ccc3c(c2)CCC(c2ccccc2)O3)s1` (centres unmarked) [compound 69] is 500 nM. In the case of `CCn1nccc1C(=O)NCc1cnc(Oc2ccc3c(c2)CCC(c2ccccc2)O3)s1` (centres unmarked) [compound 70], the IC50 amounted to 300 nM. Turning to `Cc1c(C(=O)NCc2cnc(Oc3ccc4c(c3)CCC(c3ccccc3)O4)s2)cnn1C` (centres unmarked) [compound 71], the IC50 was determined as 700 nM.

`CCn1cc(C(=O)NCc2cnc(Oc3ccc4c(c3)CCC(c3ccccc3)O4)s2)cn1` (centres unmarked) [compound 72]: the IC50 was determined as 300 nM. Regarding `Cc1nc(C(=O)NCc2cnc(Oc3ccc4c(c3)CCC(c3ccccc3)O4)s2)cs1` (centres unmarked) [compound 73], the half-maximal inhibitory concentration (IC50) was 300 nM. For the compound `Cc1ccn(CC(=O)NCc2cnc(Oc3ccc4c(c3)CCC(c3ccccc3)O4)s2)n1` (centres unmarked) [compound 74], the 50% inhibitory concentration (IC50) is 300 nM. The figure for `O=C(NCc1cnc(Oc2ccc3c(c2)CCC(c2ccccc2)O3)s1)c1ccnc(N2CCCCC2)c1` (centres unmarked) [compound 75] is 9800 nM; for `COc1cc(C(=O)NCc2cnc(Oc3ccc4c(c3)CCC(c3ccccc3)O4)s2)ccn1` (centres unmarked) [compound 76] it is 5600 nM; for `Cc1noc(C)c1CC(=O)NCc1cnc(Oc2ccc3c(c2)CCC(c2ccccc2)O3)s1` (centres unmarked) [compound 77] it is 400 nM. The figure for `Cc1nc(C)c(C(=O)NCc2cnc(Oc3ccc4c(c3)CCC(c3ccccc3)O4)s2)o1` (centres unmarked) [compound 78] is 300 nM; for `O=C(NCc1cnc(Oc2ccc3c(c2)CCC(c2ccccc2)O3)s1)c1ccncc1` (centres unmarked) [compound 79] it is 200 nM.

For the compound `O=C(NCc1cnc(Oc2ccc3c(c2)CCC(c2ccccc2)O3)s1)c1ccncc1Cl` (centres unmarked) [compound 80], the concentration for half-maximal inhibition (IC50) was 200 nM.

In the case of `O=C(NCc1cnc(Oc2ccc3c(c2)CCC(c2ccccc2)O3)s1)c1ccncc1F` (centres unmarked) [compound 81], the half-maximal inhibitory concentration (IC50) came out at 1100 nM. For the compound `Cc1cc(C(=O)NCc2cnc(Oc3ccc4c(c3)CCC(c3ccccc3)O4)s2)ccn1` (centres unmarked) [compound 82], the 50% inhibitory concentration (IC50) was found to be 400 nM. On to `O=C(NCc1cnc(Oc2ccc3c(c2)CCC(c2ccccc2)O3)s1)c1ccnc(N2CCOCC2)c1` (centres unmarked) [compound 83], for which the IC50 was 2100 nM. With `Cc1cc(C(=O)NCc2cnc(Oc3ccc4c(c3)CCC(c3ccccc3)O4)s2)on1` (centres unmarked) [compound 84], the concentration for half-maximal inhibition (IC50) stood at 300 nM. As for `Nc1cc(C(=O)NCc2cnc(Oc3ccc4c(c3)CCC(c3ccccc3)O4)s2)ccn1` (centres unmarked) [compound 85], the IC50 stood at 10900 nM. `Cn1nccc1C(=O)NCc1cnc(Oc2ccc3c(c2)CCC(c2ccccc2)O3)s1` (centres unmarked) [compound 86]: the IC50 is 300 nM. With `O=C(NCc1cnc(Oc2ccc3c(c2)CCC(c2ccccc2)O3)s1)c1ncccn1` (centres unmarked) [compound 87] the figure was 400 nM; with `O=C(NCc1cnc(Oc2ccc3c(c2)CCC(c2ccccc2)O3)s1)c1ccnc(O)c1` (centres unmarked) [compound 88], 5000 nM; with `O=C(NCc1cnc(Oc2ccc3c(c2)CCC(c2ccccc2)O3)s1)c1ccncn1` (centres unmarked) [compound 89], 200 nM. In the case of `O=C(CCn1cccn1)NCc1cnc(Oc2ccc3c(c2)CCC(c2ccccc2)O3)s1` (centres unmarked) [compound 90], the half-inhibitory concentration (IC50) came to 600 nM. The figure for `Cc1cc(C(=O)NCc2cnc(Oc3ccc4c(c3)CCC(c3ccccc3)O4)s2)nc(C)n1` (centres unmarked) [compound 91] is 5300 nM. Take `O=C(Cn1cccn1)NCc1cnc(Oc2ccc3c(c2)CCC(c2ccccc2)O3)s1` (centres unmarked) [compound 92]: the IC50 was 1100 nM. Turning to `CCn1ccc(C(=O)NCc2cnc(Oc3ccc4c(c3)CCC(c3ccccc3)O4)s2)n1` (centres unmarked) [compound 93], the IC50 worked out at 500 nM. For the compound `Cc1noc(C)c1CCC(=O)NCc1cnc(Oc2ccc3c(c2)CCC(c2ccccc2)O3)s1` (centres unmarked) [compound 94], the half-inhibitory concentration (IC50) was 900 nM. For the compound `O=C(CN1C(=O)CNC1=O)NCc1cnc(Oc2ccc3c(c2)CCC(c2ccccc2)O3)s1` (centres unmarked) [compound 95], the half-maximal inhibitory concentration (IC50) was found to be 600 nM. For the compound `CC(C)Oc1cccc(C2CCc3cc(Oc4ncc(C(=O)NCc5ccncc5)s4)ccc3O2)c1` (centres unmarked) [compound 96], the IC50 was found to be 800 nM.

Turning to `Cc1noc(C)c1CCNC(=O)c1cnc(Oc2ccc3c(c2)CCC(c2cccc(OC(C)C)c2)O3)s1` (centres unmarked) [compound 97], the half-maximal inhibitory concentration (IC50) stood at 1200 nM.

For `Cc1nc(Oc2ccc3c(c2)CC[C@@H](c2ccccc2)O3)sc1C(=O)NCc1ccncc1` [compound 98, hydrochloride], the IC50 was determined as 300 nM. For `CCCCN(C)Cc1cnc(Oc2ccc3c(c2)CCC(c2ccccc2)O3)s1` (centres unmarked) [compound 99], the concentration for half-maximal inhibition (IC50) came out at 700 nM. Consider `C[C@@H]1CN(Cc2cnc(Oc3ccc4c(c3)CCC(c3ccccc3)O4)s2)C[C@H](C)O1` (some centres unmarked) [compound 100], for which the IC50 is 1000 nM. Take `CC(C)CNCc1cnc(Oc2ccc3c(c2)CCC(c2ccccc2)O3)s1` (centres unmarked) [compound 101]: the IC50 was determined as 400 nM. For `CN1CCN(Cc2cnc(Oc3ccc4c(c3)CCC(c3ccccc3)O4)s2)CC1=O` (centres unmarked) [compound 102], the IC50 is 400 nM. For the compound `c1ccc(C2CCc3cc(Oc4ncc(CN5CCCC5)s4)ccc3O2)cc1` (centres unmarked) [compound 104], the 50% inhibitory concentration (IC50) was 400 nM. `CC(NCc1cnc(Oc2ccc3c(c2)CCC(c2ccccc2)O3)s1)C(C)(C)C` (centres unmarked) [compound 105]: the IC50 amounted to 800 nM. The figure for `CCC(CC)NCc1cnc(Oc2ccc3c(c2)CCC(c2ccccc2)O3)s1` (centres unmarked) [compound 106] is 500 nM; for `FC(F)(F)CNCc1cnc(Oc2ccc3c(c2)CCC(c2ccccc2)O3)s1` (centres unmarked) [compound 107] it is 200 nM; for `c1ccc(C2CCc3cc(Oc4ncc(CN5CC6CCC(CC6)C5)s4)ccc3O2)cc1` (centres unmarked) [compound 108] it is 1400 nM. For `FC1(F)CCN(Cc2cnc(Oc3ccc4c(c3)CCC(c3ccccc3)O4)s2)CC1` (centres unmarked) [compound 109], the 50% inhibitory concentration (IC50) was 700 nM. For `c1ccc(C2CCc3cc(Oc4ncc(CNC5CCC5)s4)ccc3O2)cc1` (centres unmarked) [compound 110], the half-inhibitory concentration (IC50) came out at 200 nM.

In general, IC50 refers to the concentration at which inhibition is half-maximal.
